Columns and labels:
BRSNS (Brassica napus) = experiment: Drought stress test on potted crop plants, spray application, Brassica napus; type: in vivo
Procedure: Seeds of monocotyledonous and dicotyledonous crop plants are placed in sandy loam in wood-fiber pots, covered with soil and cultivated in a greenhouse under good growth conditions. The test plants were treated at the early leaf stage (BBCH10-BBCH13). To ensure uniform water supply before commencement of stress, the potted plants were supplied with the maximum amount of water immediately beforehand by dam irrigation and, after application, transferred in plastic inserts in order to prevent subsequent, excessively rapid drying. The inventive compounds, formulated in the form of wettable powders (WP), wettable granules (WG), suspension concentrates (SC) or emulsion concentrates (EC), were sprayed onto the green parts of the plants as an aqueous suspension at an equivalent water application rate of 600 l/ha with addition of 0.2% wetting agent (agrotin). Substance application was followed immediately by stress treatment of the plants (cold or drought stress). For cold stress treatment, the plants were kept under the following controlled conditions: • “day”: 12 hours with illumination at 8° C. • “night”: 12 hours without illumination at 1° C. Drought stress was induced by gradual drying out under the following conditions: • “day”: 14 hours with illumination at 26° C. • “night”: 10 hours without illumination at 18° C. The duration of the respective stress phases was guided mainly by the state of the untreated, stressed control plants and thus varied from crop to crop. It was ended (by re-irrigating or transfer to a greenhouse with good growth conditions) as soon as irreversible damage was observed on the untreated, stressed control plants. In the case of dicotyledonous crops, for example oilseed rape and soybeans, the duration of the drought stress phase varied between 3 and 5 days, in the case of monocotyledonous crops, for example wheat, barley or corn, between 6 and 10 days. The duration of the cold stress phase varied between 12 and 14 days. […] The intensity of damage was first assessed as a percentage (100%=plants have died, 0%=like control plants). […]

ZEAMX (Zea mays) = experiment: Drought stress test on potted crop plants, spray application, Zea mays; type: in vivo; details: dosage 250 g/ha
Procedure: (§1) Seeds of monocotyledonous and dicotyledonous crop plants are placed in sandy loam in wood-fiber pots, covered with soil and cultivated in a greenhouse under good growth conditions. The test plants were treated at the early leaf stage (BBCH10-BBCH13). To ensure uniform water supply before commencement of stress, the potted plants were supplied with the maximum amount of water immediately beforehand by dam irrigation and, after application, transferred in plastic inserts in order to prevent subsequent, excessively rapid drying. The inventive compounds, formulated in the form of wettable powders (WP), wettable granules (WG), suspension concentrates (SC) or emulsion concentrates (EC), were sprayed onto the green parts of the plants as an aqueous suspension at an equivalent water application rate of 600 l/ha with addition of 0.2% wetting agent (agrotin). Substance application was followed immediately by stress treatment of the plants (cold or drought stress). For cold stress treatment, the plants were kept under the following controlled conditions: • “day”: 12 hours with illumination at 8° C. • “night”: 12 hours without illumination at 1° C. […] The intensity of damage was first assessed as a percentage (100%=plants have died, 0%=like control plants). […]

cotton = details: cited from earlier work
[1] = system: TRZAS (Triticum aestivum); experiment: Drought stress test on potted crop plants, spray application, Triticum aestivum; type: in vivo; details: dosage 25 g/ha
Procedure: as §1

| SMILES | EF (BRSNS), efficacy = percentage reduction in the intensity of damage (BRSNS (Brassica napus); dosage 25 g/ha) [%] | EF (ZEAMX), efficacy = percentage reduction in the intensity of damage (ZEAMX (Zea mays)) [%] | EF (BRSNS), efficacy = percentage reduction in the intensity of damage (BRSNS (Brassica napus); dosage 250 g/ha) [%] | plant growth (cotton; application to cottonseeds, hence oil content of the harvested material) | translocation of mono- and disaccharides (cotton; cotton, seed dressing) | protein content of the leaves (cotton; cottonseed dressing, early growth stages, also enhances the yields) | flower formation and the maturing of cotton plants (cotton; cottonseed dressing, hence enhances the yields) | EF (TRZAS), efficacy = percentage reduction in the intensity of damage [1] [%] |
| --- | --- | --- | --- | --- | --- | --- | --- | --- |
| O=C(O)CCCc1ccccc1 [4-phenylbutyric acid] | >5 | >5 | – | – | – | – | – | – |
| O=C([O-])CCCc1ccccc1.[Na+] [Compound I-2, Sodium 4-phenylbutyrate] | – | – | >5 | increases | positively influenced | increases | enhances | – |
| O=C(O)CCCc1ccccc1.OCCN(CCO)CCO [Compound I-22, Tris-N,N,N-(2-hydroxy-1-yl)ammonium 4-phenylbutyrate] | >5 | – | – | – | – | – | – | >5 |
